Entries after “also recorded” stand apart in the source; their conditions may differ. Where two headings read alike, the source gives them in different places.
Legend:
[1] = tested on: E. coli K1 strain UTI89; assay: Secondary assay 2: T7 phage-mediated lysis assay; format: cell-based, Escherichia coli
Procedure, shortened: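 E. coli K1 UTI89 shaken 1.5 h with compound (100–0.39 μM, quadruplicate, 1% DMSO), initial OD600 taken to flag growth effects without phage. T7 phage, whose entry is blocked by K capsule, then added; OD600 lysis read after 3 h at 37 °C, greater lysis indicating less capsule.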

[2] = Plasma stability, human; format: in vitro ADME; conditions: 1:1 Plasma:PBS, 37° C.
[3] = Hepatic microsome stability, mouse; format: in vitro ADME; conditions: 37° C.
[4] = tested on: E. coli UTI89; assay: Murine UPEC sepsis model; format: in vivo
Method: Murine UPEC sepsis model and treatment with DU011. Groups of five 6-7 week old C57BL/6NCr female mice (purchased from Frederick National Laboratory for Cancer Research) were injected subcutaneously twice daily with 100 μL of 1% DMSO (vehicle control) or DU011 (1 mg/ml) starting 12 hrs prior to the intra peritoneal infection. Weights were recorded twice daily to monitor health of the animals and tolerance to the compound. Mice were challenged by intraperitoneal injection with 10^8 CFU of the indicated E. coli UTI89 in 100 μL of PBS. Briefly, cultures were prepared by diluting overnight cultures (18 hrs) 1:100 into 3 mL of LB supplemented with 1% DMSO final or 100 μM DU011 (1% DMSO final). Shaken cultures were grown at 37° C. for 6 hours to an OD600 of 1.2, and then cells were pelleted and resuspended in 1 mL of PBS. Absorbance was adjusted to OD600 of 0.8 in PBS, and the cultures were then diluted 1:10 in sterile PBS Animals were also given an intraperitoneal dose of 1% DMSO or DU011, in a site different than the administration of bacteria, to ensure sufficient systemic delivery of drug. Animal survival was assessed after 12 hours. Surviving mice were re-dosed according to the treatment groups and continued to be monitored. The experiment was concluded 48 hours post infection. The entire experiment was repeated with similar results.
Throughout each experiment, animals were monitored each 6 hours from the time of infection until conclusion for serious morbidity, including ruffled fur, decreased activity, slowed respirations, and ill appearance. Animals were provided gel packs for easily accessible additional hydration throughout the experiments. When a moribund state was suspected or anticipated by these criteria, animals were immediately euthanized to minimize potential pain and/or suffering. Of the total animals with an outcome categorized as death, the following numbers were euthanized for terminal morbidity prior to septic death (euthanized/total deaths): 3/10, no prior treatment; 3/5 prior chemical treatment of bacteria alone; 0/2 prior chemical treatment of mice alone. Euthanasia for all animals was through complete respiratory cessation using the inhaled anesthetic isoflurane followed by secondary assurance of death using bilateral thoracotomy. All animal experiments were conducted with prior approval from the Institutional Animal Care and Use Committee of Duke University.

[5] = tested on: capsule genes of UPEC; assay: Capsule gene transcript level after probe treatment; format: cell-based, Escherichia coli; conditions: UPEC treated with the probe
[6] = tested on: panel of 68 receptors; conditions: for Inhibition across off-target panel: duplicate, upper bound over all targets
[7] = pre-treatment of bacteria without pretreatment of the mice

CCOc1ccc(-c2cc(NC(=O)c3c(F)cccc3F)c(C(=O)O)s2)cc1 [ML317, 3-(2,6-difluorobenzamido)-5-(4-ethoxyphenyl)thiophene-2-carboxylic acid]
IC50 ([1]; Escherichia coli, commercial sample, SID 103147605, read-out: T7 phage assay IC50): < 390 nM | IC50 ([1]; Escherichia coli, first round of synthetic analogues, n = 2, read-out: T7 phage IC50): < 625 nM | IC50 ([1]; Escherichia coli, purchased analogue series, n = 2, read-out: T7 phage IC50): < 390 nM | IC50 ([1]; Escherichia coli, synthesized sample, SID 126497311, read-out: T7 phage assay IC50): < 625 nM | IC50 ([1]; listed as CID 23602075, read-out: T7 phage IC50): < 390 nM | Plasma Stability, % remaining at 3 hr [2]: 95.3 % remaining | Hepatic Microsome Stability, % remaining at 1 hr [3]: 74.3 % remaining | Tolerability in mice ([4]; 100 μL of 1 mg/ml subcutaneously twice daily, listed as DU011): without evident side effects; also recorded: no detectable adverse effects | Body weight [4, 7]: ongoing weight loss | Survival [4, 7]: 50% | Body weight ([4]; pretreatment of the bacteria and mice with DU011): recovery of pre-infection weights | Survival ([4]; pretreatment of the bacteria and mice with DU011, 10^8 CFU UTI89 intraperitoneal, 48 hrs): 100% | Body weight ([4]; subcutaneous DU011 and untreated UTI89): stabilization of weights | Survival ([4]; subcutaneous DU011 and untreated UTI89, 48 hrs): 80% | Transcript for the capsule genes from each of the two major promoters [5]: significantly reduced transcript | Inhibition across off-target panel ([6]; 10 μM): < 50% | Inhibition across off-target panel ([6]; 10 μM, listed as DU011, 10 µM): < 32%

CCOc1ccc(-c2cc(NC(=O)c3c(F)cccc3F)c(C(=O)O)s2)cc1 [KUC107784N-02]
% Inh. ([6]; 10 µM): 6% | % Inh. ([6]; Calcium Channel L-Type, Benzothiazepine, rat, 10 μM): 2% | % Inh. ([6]; Calcium Channel L-Type, Dihydropyridine, rat, 10 μM): 32% | % Inh. ([6]; Dopamine D2S, hum, 10 μM): 4% | % Inh. ([6]; Dopamine D42, hum, 10 μM): 7% | % Inh. ([6]; GABAA, Flunitrazepam, Central, rat, 10 μM): 16% | % Inh. ([6]; GABAA, Muscimol, Central, rat, 10 μM): 9% | % Inh. ([6]; Glutamate, Kainate, rat, 10 μM): 11% | % Inh. ([6]; Glutamate, NMDA, Agonism, rat, 10 μM): 9% | % Inh. ([6]; Glutamate, NMDA, Glycine, rat, 10 μM): −1% | % Inh. ([6]; Glutamate, NMDA, Phencyclidine, rat, 10 μM): 6% | % Inh. ([6]; Imidazoline I2, Central, rat, 10 μM): −1% | % Inh. ([6]; Nicotinic Acetylcholine, hum, 10 μM): 13% | % Inh. ([6]; Phorbol Ester, mouse, 10 μM): −1% | % Inh. ([6]; Potassium Channel [KATP], ham, 10 μM): 9% | % Inh. ([6]; Purinergic P2X, rabbit, 10 μM): −2% | % Inh. ([6]; Purinergic P2Y, rat, 10 μM): 8% | % Inh. ([6]; Rolipram, rat, 10 μM): 9% | % Inh. ([6]; Thyroid Hormone, rat, 10 μM): −3% | % Inh. ([6]; Transporter, GABA, rat, 10 μM): 10%

— patent US9688653B2, “Ethoxyphenyl thienyl compounds and methods for the treatment of bacterial infections” (Duke University, priority 2013, dated 2017)
